Test results as given in patent publication US9840498B2, “Substituted quinazolin-4-one derivatives” (NOVARTIS AG, priority 2013, dated 2017).

Each compound was assayed against PI3K gamma (Homo sapiens (Human), UniProt P48736) (assay: Biochemical assay for PI3Kgamma (Adapta TR-FRET format)). Details: enzymatic assay.
From the text: For the enzymatic assays, the preparation of PI3K gene constructs, protein expression and purification for HTS are described in WO2012/004299. […] The TR-FRET Adapta™ Universal Kinase Assay Kit was purchased from Invitrogen Corporation (Carlsbad/CA, USA) (Cat. No. PV5099). The kit contains the following reagents: Adapta Eu-anti-ADP Antibody (Europium labeled anti-ADP antibody in HEPES buffered saline, Cat. No. PV5097), Alexa Fluor® 647-labeled ADP tracer (Alexa Fluor® 647-labeled ADP tracer in HEPES buffered saline, Cat. No. PV5098), proprietary TR-FRET dilution buffer pH 7.5 (Cat. No. PV3574). PIK3CD substrate Phosphatidylinositol was obtained from Invitrogen (vesicules consisting of 2 mM PI in 50 mM HEPES pH7.5; Cat. No. PV5371). PIK3CG substrate Phosphatidylinositol-4,5-bisphosphate (PIP(4,5)2 was obtained from Invitrogen (PIP2:PS large unilamellar vesicules consisting of 1 mM PI P2: 19 mM PS in 50 mM HEPES pH7.5, 3 mM MgCl2, 1 mM EGTA; Cat. No. PV5100). Time-Resolved Fluorescence Resonance Energy Transfer (TR-FRET) is a technology based on energy transfer between two adjacent dyes, from an excited electron in one dye (the donor) to an electron of an adjacent dye (the acceptor) through resonance, then released as a photon. This energy transfer is detected by an increase in the fluorescence emission of the acceptor, and a decrease in the fluorescence emission of the donor. TR-FRET assays for protein kinases use a long-lifetime lanthanide Terbium or Europium chelates as the donor species which overcome interference from compound autofluorescence or light scatter from precipitated compounds, by introducing a delay after excitation by a flashlamp excitation source. Results are often expressed as a ratio of the intensities of the acceptor and donor fluorophores. The ratiometric nature of such a value corrects for differences in assay volumes between wells, as well as corrects for quenching effects due to colored compounds. The Adapta™ assay can be divided into two phases: a kinase reaction phase and an ADP detection phase. In the kinase reaction phase, all kinase reaction components are added to the well and the reaction is allowed to incubate for a set period of time specific for each kinase. After the reaction, a detection solution of Eu-labeled anti-ADP antibody, Alexa Fluor® 647-labeled ADP tracer, and EDTA (to stop the kinase reaction) are added to the assay well. ADP formed by the kinase reaction will displace the Alexa Fluor® 647-labeled ADP tracer from the antibody, resulting in a decrease in TR-FRET signal. In the presence of an inhibitor, the amount of ADP formed by the kinase reaction is reduced, and the resulting intact antibody-tracer interaction maintains a high TR-FRET signal. In the Adapta™ assay, the donor (Europium-anti-ADP antibody) is excited at 340 nm and will transfer its energy to the acceptor (Alexa Fluor® 647-labeled ADP tracer). The emission from the Alexa Fluor® 647 can be monitored with a filter centered at 665 nm because it is located between the emission peaks of the donor, which is measured at 615/620 nm. 50 nL of compound dilutions were dispensed onto white 384-well small volume polystyrene plate as described in section 2.2. Then 5 μL of PI3Kgamma and PI3Kdelta and lipid substrate (PI or PIP2:PS) followed by 5 μL of ATP (final assay volume 10 μL) are incubated at RT. […] Reactions were stopped with 5 μL of a mixture of EDTA containing the Eu-labeled anti-ADP antibody and the Alexa Fluor® 647-labeled ADP tracer in TR-FRET dilution buffer (proprietary to IVG). Plates are read 15 to 60 mins later in a Synergy2 reader using an integration time of 0.4 seconds and a delay of 0.05 seconds. […] The control for the 0% inhibition was given by the solvent vehicle of the compounds (90% DMSO in H2O). Data are analyzed using Excel fit software or Graphpad Prism. EC50 values were derived by fitting a sigmoidal dose-response curve to a plot of assay readout over inhibitor concentration. […]

PI3K gamma, sequence (P48736 whole entry): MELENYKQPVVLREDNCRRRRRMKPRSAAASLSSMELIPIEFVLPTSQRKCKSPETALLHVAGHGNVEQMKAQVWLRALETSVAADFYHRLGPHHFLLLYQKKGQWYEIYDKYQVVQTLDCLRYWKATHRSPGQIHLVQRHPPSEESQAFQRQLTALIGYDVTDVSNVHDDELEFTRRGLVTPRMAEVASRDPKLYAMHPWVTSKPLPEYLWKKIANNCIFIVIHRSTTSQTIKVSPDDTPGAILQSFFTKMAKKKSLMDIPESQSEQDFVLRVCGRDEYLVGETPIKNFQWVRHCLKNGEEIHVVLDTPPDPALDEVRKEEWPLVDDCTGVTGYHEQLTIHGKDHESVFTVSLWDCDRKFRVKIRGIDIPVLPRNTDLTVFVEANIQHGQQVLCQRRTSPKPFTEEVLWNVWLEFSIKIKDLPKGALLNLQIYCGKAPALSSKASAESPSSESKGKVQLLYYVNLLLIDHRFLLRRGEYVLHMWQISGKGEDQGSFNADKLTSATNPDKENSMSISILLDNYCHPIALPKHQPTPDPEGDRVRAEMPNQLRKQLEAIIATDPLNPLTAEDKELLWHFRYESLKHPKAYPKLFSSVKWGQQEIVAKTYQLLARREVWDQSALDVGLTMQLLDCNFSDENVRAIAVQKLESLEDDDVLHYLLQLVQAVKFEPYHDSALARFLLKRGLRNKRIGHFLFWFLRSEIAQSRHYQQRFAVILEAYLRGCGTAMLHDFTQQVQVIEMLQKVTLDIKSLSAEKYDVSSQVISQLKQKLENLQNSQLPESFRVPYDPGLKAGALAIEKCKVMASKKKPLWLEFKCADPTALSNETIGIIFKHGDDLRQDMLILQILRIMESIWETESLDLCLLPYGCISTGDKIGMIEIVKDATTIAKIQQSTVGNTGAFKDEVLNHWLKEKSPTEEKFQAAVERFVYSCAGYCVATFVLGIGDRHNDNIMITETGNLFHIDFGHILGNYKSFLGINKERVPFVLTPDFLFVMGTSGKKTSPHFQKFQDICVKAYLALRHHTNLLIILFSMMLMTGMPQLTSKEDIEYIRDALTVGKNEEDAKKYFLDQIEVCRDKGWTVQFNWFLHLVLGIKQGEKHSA

Row | SMILES | IC50 [nM]
1 | COc1ccc(-c2cccc3nc([C@@H]4CCCN4c4nc(N)nc(C)c4C#N)n(-c4ccccc4)c(=O)c23)cn1 [Example 21, (S)-2-Amino-4-(2-(5-(6-methoxypyridin-3-yl)-4-oxo-3-phenyl-3,4-dihydroquinazolin-2-yl)pyrrolidin-1-yl)-6-methylpyrimidine-5-carbonitrile] | 270
2 | COc1ncc(-c2cccc3nc([C@@H]4C[C@H](O)CN4c4nc(N)nc(C)c4C#N)n(-c4ccccc4)c(=O)c23)cn1 [Example 22, 2-Amino-4-((2S,4S)-4-hydroxy-2-(5-(2-methoxypyrimidin-5-yl)-4-oxo-3-phenyl-3,4-dihydroquinazolin-2-yl)pyrrolidin-1-yl)-6-methylpyrimidine-5-carbonitrile] | 130
3 | Cc1nc(N)nc(N2C[C@@H](O)C[C@H]2c2nc3cccc(-c4cccnc4)c3c(=O)n2-c2ccccc2)c1C#N [Example 24, 2-Amino-4-((2S,4S)-4-hydroxy-2-(4-oxo-3-phenyl-5-(pyridin-3-yl)-3,4-dihydroquinazolin-2-yl)pyrrolidin-1-yl)-6-methylpyrimidine-5-carbonitrile] | 81
4 | COc1cncc(-c2cccc3nc([C@@H]4C[C@H](O)CN4c4nc(N)nc(C)c4C#N)n(-c4ccccc4)c(=O)c23)c1 [Example 25, 2-Amino-4-((2S,4S)-4-hydroxy-2-(5-(5-methoxypyridin-3-yl)-4-oxo-3-phenyl-3,4-dihydroquinazolin-2-yl)pyrrolidin-1-yl)-6-methylpyrimidine-5-carbonitrile] | 65
5 | Cc1nc(N)nc(N2C[C@@H](O)C[C@H]2c2nc3cccc(-c4cncnc4)c3c(=O)n2-c2ccccc2)c1C#N [Example 26, 2-Amino-4-((2S,4S)-4-hydroxy-2-(4-oxo-3-phenyl-5-(pyrimidin-5-yl)-3,4-dihydroquinazolin-2-yl)pyrrolidin-1-yl)-6-methylpyrimidine-5-carbonitrile] | 410
6 | COc1ccc(-c2cccc3nc([C@@H]4C[C@H](O)CN4c4nc(N)nc(C)c4C#N)n(-c4ccccc4)c(=O)c23)cn1 [Example 27, 2-Amino-4-((2S,4S)-4-hydroxy-2-(5-(6-methoxypyridin-3-yl)-4-oxo-3-phenyl-3,4-dihydroquinazolin-2-yl)pyrrolidin-1-yl)-6-methylpyrimidine-5-carbonitrile] | 58
7 | Cc1nc(N)nc(N2C[C@@H](O)C[C@H]2c2nc3cccc(-c4cnn(CCO)c4)c3c(=O)n2-c2ccccc2)c1C#N [Example 28, 2-Amino-4-((2S,4S)-4-hydroxy-2-(5-(1-(2-hydroxyethyl)-1H-pyrazol-4-yl)-4-oxo-3-phenyl-3,4-dihydroquinazolin-2-yl)pyrrolidin-1-yl)-6-methylpyrimidine-5-carbonitrile] | 21
8 | CCOc1ncc(-c2c(F)ccc3nc([C@@H]4C[C@H](O)CN4c4nc(N)nc(C)c4C#N)n(-c4ccccc4)c(=O)c23)cn1 [Example 29, 2-Amino-4-((2S,4S)-2-(5-(2-ethoxypyrimidin-5-yl)-6-fluoro-4-oxo-3-phenyl-3,4-dihydroquinazolin-2-yl)-4-hydroxypyrrolidin-1-yl)-6-methylpyrimidine-5-carbonitrile] | 13
9 | Cc1nc(N)nc(N2C[C@@H](F)C[C@H]2c2nc3cccc(-c4cnn(C)c4)c3c(=O)n2-c2ccccc2)c1C#N [Example 30, 2-Amino-4-((2S,4S)-4-fluoro-2-(5-(1-methyl-1H-pyrazol-4-yl)-4-oxo-3-phenyl-3,4-dihydroquinazolin-2-yl)pyrrolidin-1-yl)-6-methylpyrimidine-5-carbonitrile] | 24
10 | Cc1nc(N)nc(N2C[C@@H](O)C[C@H]2c2nc3ccc(F)c(-c4cn(C)cn4)c3c(=O)n2-c2ccccc2)c1C#N [Example 31, 2-Amino-4-((2S,4S)-2-(6-fluoro-5-(1-methyl-1H-imidazol-4-yl)-4-oxo-3-phenyl-3,4-dihydroquinazolin-2-yl)-4-hydroxypyrrolidin-1-yl)-6-methylpyrimidine-5-carbonitrile] | 110
11 | CCOc1ncc(-c2cccc3nc([C@@H]4CCCN4c4nc(N)nc(C)c4C#N)n(-c4ccccc4)c(=O)c23)cn1 [Example 32, (S)-2-Amino-4-(2-(5-(2-ethoxypyrimidin-5-yl)-4-oxo-3-phenyl-3,4-dihydroquinazolin-2-yl)pyrrolidin-1-yl)-6-methylpyrimidine-5-carbonitrile] | 140
12 | N#Cc1c(N)ncnc1N1CCC[C@H]1c1nc2cccc(C#CCO)c2c(=O)n1-c1ccccc1 [Example 33, (S)-4-Amino-6-(2-(5-(3-hydroxyprop-1-yn-1-yl)-4-oxo-3-phenyl-3,4-dihydroquinazolin-2-yl)pyrrolidin-1-yl)pyrimidine-5-carbonitrile] | 81
